Experimental data as given in patent US20200038412A1, “METHODS OF TREATING ALZHEIMER'S DISEASE USING AMINOSTEROL COMPOSITIONS” (Enterin, Inc., priority 2018, published 2020).

Assays:
Type in all cases: in vivo, human
[1] = tested on: patients with PD and constipation; experiment: Phase 2 trial Stage 2: bowel function under daily oral dosing (escalation, fixed dose, wash-out)
Method: Following successful screening, all subjects underwent a 14-day run-in period where the degree of constipation was assessed through a validated daily log (Zinsmeister et al. 2013) establishing baseline CSBMs/week. Subjects with an average of <3 CSBMs/week proceeded to dosing.
In Stage 2, 34 patients were evaluated.
The primary efficacy outcome variable was whether or not a subject was a “success” or “failure”. This is an endpoint based on subject diary entries for the “fixed dose” period prior to the endpoint assessment defined as average complete stool frequency increase by 1 or more over baseline, or 3 or more complete spontaneous stools/week. The subject was deemed a “success” if s/he met one or more of the criteria listed above, otherwise the subject was deemed a “failure”. The primary analysis was based on all subjects with a baseline assessment and an assessment at the end of the “fixed-dose” period and was a comparison of the proportion of successes with 0.10 (the null hypothesis corresponding to no treatment effect).

[2] = tested on: patients with PD and constipation; experiment: Phase 2 trial Stage 1: adverse events
Text: Tolerability limits included diarrhea or vomiting.

[3] = tested on: patients with PD and constipation; experiment: Phase 2 trial, all dosed patients (Stage 1 and 2): adverse events
Method: Fifty patients were enrolled and 44 were dosed. In Stage 1, 10 patients were dosed, 1 (10%) withdrew prior to completion and 9 (90%) completed dosing. In stage 2, 6 (15%) patients had ≥3 CSBM/week at the end of the run-in period and were excluded, 34 patients were dosed and bowel response was assessable in 31 (91%). Two patients (5.8%) were terminated prior to completion because of recurrent dizziness, and 3 others withdrew during dosing (8.8%): 2 because of diarrhea and 1 because of holiday. Fifteen patients were randomized.
Most AEs were confined to the GI tract (88% in Stage 1 and 63% in Stage 2). The most common AE was nausea which occurred in 4/10 (40%) patients in Stage 1 and in 18/34 (52.9%) in Stage 2 (Table 2). Diarrhea occurred in 4/10 (40%) patients in Stage 1 and 15/34 (44%) in Stage 2. One patient withdrew because of recurrent diarrhea. Other GI related AEs included abdominal pain 11/44 […], flatulence 3/44 (6.8%), vomiting 3/44 (6.8%), worsening of acid reflux 2/44 (4.5%), and worsening of hemorrhoids 1/44 (2.2%). […] The only other noteworthy AE was dizziness 8/44 (18%). Dizziness was graded as moderate in one patient who was receiving an alpha-adrenergic blocking agent (Terazosin). This patient was withdrawn from the study and recovered spontaneously.

[4] = Pharmacokinetics of orally administered squalamine (ENT-01) in Stage 1
Method: PK data were collected on the 10 patients enrolled in Stage 1 and 10 patients enrolled in Stage 2 to determine the extent of systemic absorption. In Stage 1, PK data were obtained at each visit, pre-medication, at 1, 2, 4, 8 and 24 hours (Table 10). In Stage 2, PK was measured on days 1 and 6 of the randomization period pre-medication, at 1, 2, 4 and 8 hours (Table 11).
The mean Cmax, Tmax and T1/2 and AUC of the squalamine ion following squalamine (ENT-01) oral dosing for Stage 1 patients. The PK analyses are only approximate, as the lower limit of the validated concentration range was 10 ng/ml; most of the measured concentrations fell below that value. The mean Cmax, Tmax and T1/2 and AUC of the squalamine ion following squalamine (ENT-01) oral dosing for Stage 2 patients. The PK analyses are only approximate, as the lower limit of the validated concentration range was 0.5 ng/ml.

[5] = Stage 1, 10 dosed, unrelated to ENT-01

In the case of `CC(C)[C@@H](CC[C@@H](C)[C@H]1CC[C@H]2[C@@H]3[C@H](O)C[C@H]4C[C@@H](NCCCNCCCCN)CC[C@]4(C)[C@H]3CC[C@]12C)OS(=O)(=O)O` (single isomer, unassigned) [squalamine (ENT-01), squalamine], the “improvement of ease of passage” value ([1]; 3.2 to 3.7) is reported as 16%, the “response rate (CSBM within 24 hours of dosing on at least 2 of 3 days)” value ([1]; Stage 2, daily oral dosing, 75 mg) is reported as 26% and the “CSBM, weekly average” value ([1]; Stage 2, fixed dose, mean (SD), n = 34, baseline 1.2 (0.90)) is reported as 3.8 (2.4) CSBM/week. The “Suppository use / rescue medication, weekly average” value ([1]; Stage 2, fixed dose, mean (SD), n = 34, baseline 1.8 (1.92)) was 0.3 (0.67) /week, the “Consistency (Bristol stool scale 1-7)” value ([1]; Stage 2, fixed dose, mean (SD), n = 34, baseline 2.7 (1.20), listed as aminosterol) was 4.1 and the “Ease of passage (Ease of evacuation scale 1-7)” value ([1]; Stage 2, fixed dose, mean (SD), n = 34, baseline 3.2 (0.73), listed as aminosterol) was 3.7. For the same molecule, the PAQ-SYM ([1]; Stage 2, wash-out, mean (SD), baseline 1.3 (0.45)) was 1.1 (0.60), the PAQ-QOL ([1]; Stage 2, wash-out, mean (SD), baseline 1.4 (0.49)) was 1.2 (0.63) and the Rescue meds ([1]; Stage 2, wash-out, mean (SD), baseline 1.8 (1.92)) was 1.0 (1.40). For the same molecule, the Consistency ([1]; Stage 2, wash-out, mean (SD), baseline 2.7 (1.20)) was 2.8 (1.39), the Ease ([1]; Stage 2, wash-out, mean (SD), baseline 3.2 (0.73)) was 3.3 (0.81) and the “improvement of average CSBM/week” value ([1]; baseline 1.2 to fixed dose 3.8) was 216%. The “decrease of use of rescue medication” value ([1]; baseline 1.8/week to fixed dose 0.3) was 83%, the “improvement of SBM” value ([1]; baseline 2.6 to fixed dose 4.5) was 73% and the “CSBM frequency in the randomized cohort” value ([1]; group later randomized to placebo (n = 9), fixed dose period (still on drug), baseline 1.6) was 3.3 CSBM/week. For the same molecule, the “CSBM frequency in the randomized cohort” value ([1]; group randomized to treatment (n = 6), fixed dose period, baseline 0.8) was 3.2 CSBM/week, the “CSBM frequency in the randomized cohort” value ([1]; group randomized to treatment (n = 6), randomized period (4-6 days continued treatment), baseline 0.8) was 2.4 CSBM/week and the “CSBM frequency in the randomized cohort” value ([1]; group randomized to treatment (n = 6), washout, baseline 0.8) was 0.9 CSBM/week. For the same molecule, the “improvement of consistency (Bristol stool scale)” value ([1]; mean 2.7 to 4.1) was 52%, the “mean dose required for a bowel response (prokinetic dose)” value ([1]; patients with baseline ≥1 CSBM/week) was 120 mg and the patients responding ([1]; within effective dose range 75 mg to 250 mg) was 85%. For the same molecule, the “AEs confined to the GI tract” value ([2]; Stage 1) was 88%, the “Diarrhea (common adverse events by dose)” value ([2]; Stage 1, 25 mg) was 1 and the “Nausea (common adverse events by dose)” value ([2]; Stage 1, 25 mg) was 0. The “Vomiting (common adverse events by dose)” value ([2]; Stage 1, 25 mg) was 0, the “Diarrhea (common adverse events by dose)” value ([2]; Stage 1, 50 mg) was 1 and the “Nausea (common adverse events by dose)” value ([2]; Stage 1, 50 mg) was 0. For the same molecule, the “Vomiting (common adverse events by dose)” value ([2]; Stage 1, 50 mg) was 0, the “Diarrhea (common adverse events by dose)” value ([2]; Stage 1, 75 mg) was 1 and the “Nausea (common adverse events by dose)” value ([2]; Stage 1, 75 mg) was 0. For the same molecule, the “Vomiting (common adverse events by dose)” value ([2]; Stage 1, 75 mg) was 0, the “Diarrhea (common adverse events by dose)” value ([2]; Stage 1, 100 mg) was 0 and the “Nausea (common adverse events by dose)” value ([2]; Stage 1, 100 mg) was 1. The “Vomiting (common adverse events by dose)” value ([2]; Stage 1, 100 mg) was 1, the “Diarrhea (common adverse events by dose)” value ([2]; Stage 1, 125 mg) was 1 and the “Nausea (common adverse events by dose)” value ([2]; Stage 1, 125 mg) was 2. For the same molecule, the “Vomiting (common adverse events by dose)” value ([2]; Stage 1, 125 mg) was 1, the “Diarrhea (common adverse events by dose)” value ([2]; Stage 1, 150 mg) was 1 and the “Nausea (common adverse events by dose)” value ([2]; Stage 1, 150 mg) was 0. For the same molecule, the “Vomiting (common adverse events by dose)” value ([2]; Stage 1, 150 mg) was 0, the “Diarrhea (common adverse events by dose)” value ([2]; Stage 1, 175 mg) was 1 and the “Nausea (common adverse events by dose)” value ([2]; Stage 1, 175 mg) was 1. For the same molecule, the “Vomiting (common adverse events by dose)” value ([2]; Stage 1, 175 mg) was 0, the “Diarrhea (common adverse events by dose)” value ([2]; Stage 1, 200 mg) was 0 and the “Nausea (common adverse events by dose)” value ([2]; Stage 1, 200 mg) was 2. The “Vomiting (common adverse events by dose)” value ([2]; Stage 1, 200 mg) was 0, the patients with diarrhea ([2]; Stage 1, 4/10 patients) was 40% and the patients with nausea ([2]; Stage 1, 4/10 patients) was 40%. The “Abdominal pain, Mild” value ([2]; Stage 1, 10 dosed) was 2 (20) n, %, the “Abdominal pain, Moderate” value ([2]; Stage 1, 10 dosed) was 3 (30) n, % and the “Blood in urine, Moderate” value ([2]; Stage 1, 10 dosed) was 0 n, %. The “Diarrhea, Mild” value ([2]; Stage 1, 10 dosed) was 1 (10) n, %, the “Diarrhea, Moderate” value ([2]; Stage 1, 10 dosed) was 3 (30) n, % and the “Diarrhea, Severe” value ([2]; Stage 1, 10 dosed) was 0 n, %. The “Difficulty falling asleep, Mild” value ([2]; Stage 1, 10 dosed) was 0 n, %, the “Difficulty falling asleep, Moderate” value ([2]; Stage 1, 10 dosed) was 0 n, % and the “Dizziness, Mild” value ([2]; Stage 1, 10 dosed) was 0 n, %. For the same molecule, the “Dizziness, Moderate” value ([2]; Stage 1, 10 dosed) was 0 n, %, the “Eye infection, Mild” value ([2]; Stage 1, 10 dosed) was 0 n, % and the “Eye infection, Moderate” value ([2]; Stage 1, 10 dosed) was 0 n, %. The “Flatulence, Mild” value ([2]; Stage 1, 10 dosed) was 2 (20) n, %, the “Flatulence, Moderate” value ([2]; Stage 1, 10 dosed) was 0 n, % and the “Headache, Mild” value ([2]; Stage 1, 10 dosed) was 1 (10) n, %. For the same molecule, the “Headache, Moderate” value ([2]; Stage 1, 10 dosed) was 0 n, %, the “Increased urinary frequency, Mild” value ([2]; Stage 1, 10 dosed) was 0 n, % and the “Increased urinary frequency, Moderate” value ([2]; Stage 1, 10 dosed) was 0 n, %. The “Loss of appetite, Moderate” value ([2]; Stage 1, 10 dosed) was 0 n, %, the “Lower GI bleed, Severe” value ([2]; Stage 1, 10 dosed) was 0 n, % and the “Nausea, Mild” value ([2]; Stage 1, 10 dosed) was 4 (40) n, %. The “Nausea, Moderate” value ([2]; Stage 1, 10 dosed) was 0 n, %, the “Skin lesions-rash, Mild” value ([2]; Stage 1, 10 dosed) was 0 n, % and the “Skin lesions-rash, Moderate” value ([2]; Stage 1, 10 dosed) was 0 n, %. The “Urinary retention, Mild” value ([2]; Stage 1, 10 dosed) was 0 n, %, the “Urinary retention, Moderate” value ([2]; Stage 1, 10 dosed) was 0 n, % and the “Urinary tract infection, Mild” value ([2]; Stage 1, 10 dosed) was 0 n, %. For the same molecule, the “Urinary tract infection, Moderate” value ([2]; Stage 1, 10 dosed) was 0 n, %, the “Vomiting, Mild” value ([2]; Stage 1, 10 dosed) was 1 (10) n, % and the “Vomiting, Moderate” value ([2]; Stage 1, 10 dosed) was 0 n, %. For the same molecule, the “Worsening acid reflux, Mild” value ([2]; Stage 1, 10 dosed) was 0 n, %, the “Worsening acid reflux, Moderate” value ([2]; Stage 1, 10 dosed) was 0 n, % and the “Worsening hemorrhoid, Mild” value ([2]; Stage 1, 10 dosed) was 0 n, %. The “Worsening hemorrhoid, Moderate” value ([2]; Stage 1, 10 dosed) was 0 n, %, the “Blood in urine, Mild” value [2, 5] was 1 (10) n, % and the “Loss of appetite, Mild” value [2, 5] was 1 (10) n, %. For the same molecule, the “patients with worsening of hemorrhoids” value ([3]; 1/44 dosed patients) was 2.2%, the “patients with worsening of acid reflux” value ([3]; 2/44 dosed patients) was 4.5% and the patients with flatulence ([3]; 3/44 dosed patients) was 6.8%. For the same molecule, the patients with vomiting ([3]; 3/44 dosed patients) was 6.8%, the patients with dizziness ([3]; 8/44 dosed patients) was 18% and the AUC0-8 hr ([4]; Stage 1, oral 50 mg, 10 patients) was 18.5 ng·h/mL. For the same molecule, the AUC0-8 hr ([4]; Stage 1, oral 100 mg, 9 patients) was 29.6 ng·h/mL, the AUC0-8 hr ([4]; Stage 1, oral 200 mg, 6 patients) was 78.3 ng·h/mL and the T1/2 ([4]; Stage 1, oral 200 mg, n = 5) was 9.0 (5) hours. The approximate oral bioavailability ([4]; Stage 1, oral dosing up to 200 mg, compared with prior phase 1 IV data) was “about 0.1%” and the bioavailability ([4]; human, plasma, oral, PD patients, estimated from pharmacokinetic behavior of intravenously administered squalamine in prior clinical studies) was under 0.3%.
